Tested on: stat5
Test: Western blotting, stat5 phosphorylation
Format: cell-based, human
Conditions: 30 ng/ml 2-IB
Method: In vitro hypoxia was induced in the cell cultures by using our recently described system with minor modifications (Huang et al., 2013b; Weber et al., 2015; Zitta et al., 2010). Enzyme stock solutions (100×) of catalase and glucose oxidase (both from Sigma-Aldrich) were prepared in cell culture medium (DMEM/F12, 1% FCS; final concentration: 120 U/ml and 2 U/ml respectively; Sigma-Aldrich) leading to a decrease of partial pressure of oxygen (pO2) below 10 mmHg within 5 minutes. Hypoxic conditions were confirmed by using a tissue oxygen pressure monitor (LICOX® CMP Oxygen Catheter; Integra, Plainsboro, USA). After 7 hours of hypoxia, the cells were washed twice with PBS (PAA) and fresh normoxic medium supplemented with solvent (citrate buffer 1%) or 2-IB (10, 30, 50, 100 and 300 ng/mL) was added to the cells. […]
Protein extraction was performed using RIPA buffer containing 150 mM sodium chloride, 1% NP-40, 1% sodium deoxycholate, 0.1% sodium dodecyl sulfate (SDS) and 50 mM Tris-HCl buffer (pH 7.6; all from Sigma-Aldrich) or alternatively M-PER buffer (Mammalian Protein Extraction Reagent; Pierce, Ill., USA). Protein concentrations were determined with Roti®-Quant assays (Carl Roth) and samples were stored at −20° C. until use. […] Images were taken and densitometrically analyzed with the software ImageJ (v1.41o, NIH).

N=C1N[C@H]2[C@H](CS[C@H]2CCCCC(=O)O)N1 [2-IB, 2-iminobiotin]
phosphorylation of stat5: did not influence
